In brackets after ≈: the same amount, converted by molar mass. Like-named read-outs stand apart in the source and are kept apart here. Blank lines part the entries; values can stand above or below the compound they belong to.
What was measured:
[1] = Dynamic vapor sorption (hygroscopicity); assay type: physicochemical; settings: for DVS wt gain: @ 95% RH, Compound 1 HCl salt forms; for hygroscopicity (in words): DVS; for water uptake: between 0 and 90% RH; for DVS water uptake: up to 90% RH, Compound 1 citrate salt polymorphs
Protocol: Dynamic vapor sorption (DVS) was measured using DVS advantage (Surface Measurement Systems Ltd). The samples were tested under isotherm (25° C.) at a targeted RH of 0 to 95% full cycle in step mode. For an isotherm test, the chamber temperature was maintained by a water bath at constant 25.0±1.0° C. The relative humidity in the sample chamber was generated by combining different flows of wet and dry nitrogen with variable flow rates. The analysis was performed in 10% RH increments. Sampling rate was 1 sec save data rate is 20 sec. The dm/dt (%) value was set at 0.001 with a dm/dt window of 5 min., a minimum stability duration time of 10 min, and a maximum stage time of 180 min. The sample's equilibrium weight corresponding to each RH was recorded. A sorption isotherm was obtained by plotting equilibrium moisture content versus RH.
Hygroscopicity was determined on a Surface Measurement Systems DVS. A sample size of 5-20 mg was loaded into the DVS instrument sample pan and the sample was analyzed on a DVS automated sorption analyzer at room temperature. The relative humidity was increased from 0% to 90% RH at 10% RH step, then decreased in a similar manner to accomplish a full adsorption/desorption cycle.

[2] = Approximate solubility in various solvents at room temperature; assay type: physicochemical
Protocol: (§1) The resulting mixture was agitated for about 1 day at room temperature. If all of the solids appeared to be dissolved by visual inspection, the estimated solubility was calculated based on the total volume of solvent used to give a complete solution. If solids were present, a known volume of filtrate was evaporated to dryness and the weight of the residue was measured to estimate the solubility.
as §1, with “for” for “for about”

[3] = Form conversion / form transfer experiments (humidity, drying, competitive slurries); assay type: physicochemical
Excerpt: The thermodynamic relationship between the two forms was explored through form conversion experiments (Table 31).

[4] = Compression test (2000-psi pressure); assay type: physicochemical; settings: 2000-psi pressure for about 1 minute
[5] = Stability of free base in solution and in solid state under stress conditions; assay type: physicochemical
physchem [6] = settings: simulated gastric fluid, thermodynamic from solid
[7] = Solid state stability of salt forms and free base; assay type: physicochemical
physchem [8] = settings: FaSSGF, fassgf or other biorelevant
[9] = Solubility of salt forms and free base in water, SGF, SIF and 0.5% HPMC in […] Tween 80
[10] = Solubility in biorelevant media (FeSSIF, FaSSIF, FaSSGF, FeSSGF)
[11] = test system: TEAD reporter (8×GTIIC-luciferase) in W138 VA13 cells; assay: TEAD reporter assay; assay type: cell-based; settings: 24 or 72 hours
Protocol: TEAD reporter activity was analyzed using W138 VA13 cells stably expressing a YAP/TAZ responsive synthetic promoter driving luciferase expression (8×GTIIC-luciferase). 10,000 cells per well were seeded on a white-walled 96-well plate and left overnight. After 16-20 hours, cells were treated with compound and TEAD reporter activity was measured 24 or 72 hours later using Bright Glo luciferase assay (Promega) according to the manufacturer's instructions. This assay was performed 3 times for Compound 1 and twice for Trametinib.

[12] = Approximate solubility of HCl salt starting material in selected organic solvents; assay type: physicochemical; settings: room temperature
Protocol: Solubility of the starting mater in selected organic solvents was determined by mixing with selected solvents at room temperature.

- DVS wt gain [1]: ~4.5% wt
Compound: CC1(C(N)=O)CCC(n2c(Nc3c(Cl)cc(Cl)cc3Cl)nc3cnc(NC4CCOCC4F)nc32)CC1.Cl.O (centres unmarked) [Form 7]

- DVS wt gain [1]: ~2% wt
Compound: CC1(C(N)=O)CCC(n2c(Nc3c(Cl)cc(Cl)cc3Cl)nc3cnc(NC4CCOCC4F)nc32)CC1.Cl.O (centres unmarked) [Form 8]

- solid form after compression [4]: still Form Y
- hygroscopicity (in words) [1]: slightly hygroscopic
- water uptake [1]: about 2.1 % w/w
Compound: CC1(C(N)=O)CCC(n2c(Nc3c(Cl)cc(Cl)cc3Cl)nc3cnc(NC4CCOCC4F)nc32)CC1.O=C(O)CC(O)(CC(=O)O)C(=O)O (centres unmarked) [Form Y]

- solid form after compression [4]: still Form Z
- hygroscopicity (in words) [1]: slightly hygroscopic
- water uptake [1]: about 1.6 % w/w
Compound: CC1(C(N)=O)CCC(n2c(Nc3c(Cl)cc(Cl)cc3Cl)nc3cnc(NC4CCOCC4F)nc32)CC1.O=C(O)CC(O)(CC(=O)O)C(=O)O (centres unmarked) [Form Z]

- Chemical (40° C./75% RH) RRT = 2.2 ([7]; 40° C./75% RH): 0.02%
- Physical (40° C./75% RH) ([7]; 40° C./75% RH): Stable
- Chemical (60° C.) RRT2.2 [7]: 0.05%
- Physical (60° C.) [7]: Stable
- pH at final ([9]; 0.5% HPMC/[…] Tween80): 3.06
- pH at final ([9]; SGF): 1.17
- pH at final ([9]; SIF): 7.22
- pH at final ([9]; Water): 3.65
- pH ([10]; FaSSGF): 1.82
- pH ([10]; FaSSIF): 6.12
- pH ([10]; FeSSGF): 5.66
- pH ([10]; FeSSIF): 4.85
- hygroscopicity with respect to monohydrate ([1]; 0-95% RH): < 1.0%
- hygroscopicity (in words) [1]: low hygroscopicity
- remaining water released ([1]; from 5% RH to dry): ~2.8 % wt
- additional moisture sorption ([1]; from 25 to 95% RH): ~1.7%
- loss of water content during desorption cycle ([1]; from 95 down to 5% RH): ~1.5%
Compound: CC1(C(N)=O)CCC(n2c(Nc3c(Cl)cc(Cl)cc3Cl)nc3cnc(NC4CCOCC4F)nc32)CC1.Cl.O (centres unmarked) [HCl Salt]
- solid state stability (in words) [7]: chemically and physically stable in solid state

- Resulting Form(s) ([3]; Slurry in EtOAc, RT, 5 days): Y + Z
- Resulting Form(s) ([3]; Slurry in EtOAc, RT, 10 days): Y + Z
- Resulting Form(s) ([3]; Slurry in Toluene, 50° C., 4 days): Z + Y
- Resulting Form(s) ([3]; Slurry in Toluene, RT, 5 days): Z + Y
- Resulting Form(s) ([3]; Slurry in Toluene, RT, 10 days): Z + Y
Compound: CC1(C(N)=O)CCC(n2c(Nc3c(Cl)cc(Cl)cc3Cl)nc3cnc(NC4CCOCC4F)nc32)CC1.O=C(O)CC(O)(CC(=O)O)C(=O)O (centres unmarked) [Y + Z]

- DVS water uptake [1]: ~2.1 wt % water
Compound: CC1(C(N)=O)CCC(n2c(Nc3c(Cl)cc(Cl)cc3Cl)nc3cnc(NC4CCOCC4F)nc32)CC1.O=C(O)CC(O)(CC(=O)O)C(=O)O (centres unmarked) [Y]

- Approximate Solubility ([12]; 2-MeTHF): S < 0.9 mg/mL
- Approximate Solubility ([12]; DCM): S < 1.6 mg/mL
- Approximate Solubility ([12]; DMAc): S > 18 mg/mL
- Approximate Solubility ([12]; DMSO): S > 22 mg/mL
- Approximate Solubility ([12]; EtOAc): S < 1.5 mg/mL
- Approximate Solubility ([12]; EtOH): S > 28 mg/mL
- Approximate Solubility ([12]; H2O): S < 1.0 mg/mL
- Approximate Solubility ([12]; Heptane): S < 1.7 mg/mL
- Approximate Solubility ([12]; IPAc): S < 1.3 mg/mL
- Approximate Solubility ([12]; MIBK): S < 1.5 mg/mL
- Approximate Solubility ([12]; MTBE): S < 1.0 mg/mL
- Approximate Solubility ([12]; MeOAc): S < 0.9 mg/mL
- Approximate Solubility ([12]; MeOH): S > 31 mg/mL
- Approximate Solubility ([12]; NMP): S > 24 mg/mL
- Approximate Solubility ([12]; Toluene): S < 1.4 mg/mL
Compound: CC1(C(N)=O)CCC(n2c(Nc3c(Cl)cc(Cl)cc3Cl)nc3cnc(NC4CCOCC4F)nc32)CC1.Cl (centres unmarked) [anhydrate/amorphous starting material]

- DVS wt gain [1]: ~3.6% wt
- hygroscopicity (in words) [1]: moderately hygroscopic
- mass change ([1]; from 0% RH to 95% RH at 25° C.): 3.6 wt %
Compound: CC1(C(N)=O)CCC(n2c(Nc3c(Cl)cc(Cl)cc3Cl)nc3cnc(NC4CCOCC4F)nc32)CC1.Cl (centres unmarked) [starting material HCl Salt Form]

Second part, the compound before the results:

Compound: C[C@]1(C(N)=O)CC[C@@H](n2c(Nc3c(Cl)cc(Cl)cc3Cl)nc3cnc(N[C@@H]4CCOC[C@H]4F)nc32)CC1 [Form A]
- solubility at 1 day ([2]; 1,4-dioxane, organic solvent or mixture, thermodynamic from solid, 1,4-dioxane): > 50 mg/mL
- solubility at 1 day ([2]; 2-MeTHF, organic solvent or mixture, thermodynamic from solid): > 50 mg/mL
- solubility at 1 day ([2]; DCM, organic solvent or mixture, thermodynamic from solid): > 50 mg/mL
- solubility at 1 day ([2]; EtOAc, organic solvent or mixture, thermodynamic from solid): > 100 mg/mL
- solubility at 1 day ([2]; EtOH, organic solvent or mixture, thermodynamic from solid): > 20 mg/mL
- solubility at 1 day ([2]; EtOH/water (1:1), aqueous with cosolvent or surfactant or cyclodextrin, thermodynamic from solid, EtOH/water (1:1)): > 3 mg/mL
- solubility at 1 day ([2]; IPA, organic solvent or mixture, thermodynamic from solid): > 10 mg/mL
- solubility at 1 day ([2]; IPAc, organic solvent or mixture, thermodynamic from solid): > 50 mg/mL
- solubility at 1 day ([2]; MEK, organic solvent or mixture, thermodynamic from solid): > 50 mg/mL
- solubility at 1 day ([2]; MIBK, organic solvent or mixture, thermodynamic from solid): > 50 mg/mL
- solubility at 1 day ([2]; MTBE, organic solvent or mixture, thermodynamic from solid): > 20 mg/mL
- solubility at 1 day ([2]; MeCN, organic solvent or mixture, thermodynamic from solid): > 3 mg/mL
- solubility at 1 day ([2]; MeCN/water (1:1), aqueous with cosolvent or surfactant or cyclodextrin, thermodynamic from solid, MeCN/water (1:1)): > 50 mg/mL
- solubility at 1 day ([2]; MeOAc, organic solvent or mixture, thermodynamic from solid): > 100 mg/mL
- solubility at 1 day ([2]; MeOH, organic solvent or mixture, thermodynamic from solid): > 50 mg/mL
- solubility at 1 day ([2]; THF, organic solvent or mixture, thermodynamic from solid): > 100 mg/mL
- solubility at 1 day ([2]; THF/water (1:1), aqueous with cosolvent or surfactant or cyclodextrin, thermodynamic from solid, THF/water (1:1)): > 50 mg/mL
- solubility at 1 day ([2]; acetone, organic solvent or mixture, thermodynamic from solid): > 100 mg/mL
- solubility at 1 day ([2]; heptane, organic solvent or mixture, thermodynamic from solid): < 1 mg/mL
- solubility at 1 day ([2]; n-BuOH, organic solvent or mixture, thermodynamic from solid): > 20 mg/mL
- solubility at 1 day ([2]; toluene, organic solvent or mixture, thermodynamic from solid): > 10 mg/mL
- solubility at 1 day ([2]; water, thermodynamic from solid): < 1 mg/mL
- Resulting Form ([3]; no solvent, RT and 0% RH 6 days): B + A
- weight change ([1]; between 10 and 30% RH): over 3%
- additional water uptake ([1]; between 30-90% RH): approximately 1.4 wt %
- DVS water uptake up to 90 % RH ([1]; listed as A): 4.7 wt % water

Compound: C[C@]1(C(N)=O)CC[C@@H](n2c(Nc3c(Cl)cc(Cl)cc3Cl)nc3cnc(N[C@@H]4CCOC[C@H]4F)nc32)CC1 [Free Base]
- temperature above which crystal form of monohydrate changes [5]: > 60 °C
- stability in solution ([5]; pH 1.2 to 7.5, 40° C.): stable
- chemical and physical stability in solid state under stress conditions ([5]; solid state, stress conditions): up to seven weeks
- solubility thermodynamic at 24 h (physchem [6]): 3.48 mg/mL (≈ 6.1 mM)
- solid state stability (in words) [7]: chemically and physically stable in solid state
- Physical (40° C./75% RH) ([7]; 40° C./75% RH): Stable
- Chemical (60° C.) RRT2.2 [7]: <0.03%
- Physical (60° C.) [7]: Dehydration (−),
- Conc. at 24 Hrs: 3 µg/mL
- Conc. at 24 Hrs (pH 4.23): 178 µg/mL
- solubility (physchem [8]): 3.85 mg/mL (≈ 6.74 mM)
- pH at final ([9]; 0.5% HPMC/[…] Tween80): 4.23
- pH at final ([9]; SGF): 1.93
- pH at final ([9]; SIF): 7.33
- pH at final ([9]; Water): 8.11
- pH ([10]; FaSSGF): 2.77
- pH ([10]; FaSSIF): 6.37
- pH ([10]; FeSSGF): 6.23
- pH ([10]; FeSSIF): 4.95
- hygroscopicity (in words) ([1]; listed as monohydrate free base): slightly hygroscopicity

Compound: CC(=O)Nc1cccc(-n2c(=O)n(C3CC3)c(=O)c3c(Nc4ccc(I)cc4F)n(C)c(=O)c(C)c32)c1 [Trametinib, reference compound]
- inhibition of TEAD reporter activity [11]: did not inhibit

Compound: CC1(C(N)=O)CCC(n2c(Nc3c(Cl)cc(Cl)cc3Cl)nc3cnc(NC4CCOCC4F)nc32)CC1.O=C(O)CC(O)(CC(=O)O)C(=O)O (centres unmarked) [Z]
- DVS water uptake [1]: ~1.6 wt % water

Compound: C[C@]1(C(N)=O)CC[C@@H](n2c(Nc3c(Cl)cc(Cl)cc3Cl)nc3cnc(N[C@@H]4CCOC[C@H]4F)nc32)CC1 [amorphous]
- reversible weight change ([1]; between 10 and 50% RH): about 3.5%
- DVS water uptake up to 90 % RH [1]: 6.9 wt % water

Compound: Citrate
- hygroscopicity (in words) [1]: low hygroscopicity

Source: patent US10513519B2, “Solid forms of (1S,4S)-4-(2-(((3S,4R)-3-fluorotetrahydro-2H-pyran-4-yl)amino)-8-((2,4,6-trichlorophenyl)amino)-9H-purin-9-yl)-1-methylcyclohexane-1-carboxamide and methods of their use” (Signal Pharmaceuticals, LLC, priority 2016, dated 2019)
